Measurements: ChEMBL document CHEMBL1201862, “PubChem BioAssay data set” (2004)
Active and inactive are the calls of the source.

What was measured:
[1] = molecular target: Scavenger receptor class B member 1 (Mus musculus, UniProt Q61009); experiment: inhibitors of SR-BI mediated HDL lipid uptake, dose response, ldlA[mSR-BI] cells, fluorescence, cherry pick (AID 493194); type: functional, cell-based;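 further: cellular uptake of fluorescent DiI-labeled HDL measured as cell fluorescence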
[2] = HIV-1 Env-mediated cell fusion inhibitors, dose response, CCR5-tropic Env (AID 2279); type: functional
HEK293 [3] = experiment: inhibitors of LMP1-driven NF-kB reporter, dose response, cell-based, HEK293, luciferase, cherry-pick (AID 588343); type: functional; conditions: Homo sapiens
HEK293 [4] = experiment: Cytotoxicity assay in HEK293 cells. [Related pubchem assays (depositor defined):AID1266, AID1269, AID1270, AID1271, AID1280, AID1281, AID1282, AID1283, AID1287, AID1289, AID1290, AID1291, AID1292, AID1293, AID1294, AID1295, AID1299, AID1302, AID1364, AID1365, AID1366, AID1367, AID1369, AID1370, AID1371, AID1372, AID1373, AID1374, AID1375, AID1384 …; type: functional, cell-based; conditions: Homo sapiens
HEK293 [5] = experiment: PMA/Ionomycin induced NF-kB luciferase assay in 293- NF-kB-Luc stable cells. [Related pubchem assays: 1299, 1270, 1295, 1375, 1287, 1281, 1293, 1291, 1289, 1280, 465, 1364, 1282, 1372, 1365, 1370, 1367, 1366, 1269, 1373, 1292, 1290, 1302, 1371, 1283, 1271, 1294, 1374, 1368, 1369 ]; type: functional, cell-based; conditions: Homo sapiens
[6] = molecular target: Luciferin 4-monooxygenase (Photinus pyralis, UniProt P08659); experiment: In vitro luciferase assay using purified luciferase. [Related pubchem assays: 1299, 1270, 1295, 1375, 1287, 1281, 1293, 1291, 1289, 1280, 465, 1364, 1282, 1372, 1365, 1370, 1367, 1366, 1266, 1373, 1292, 1290, 1302, 1371, 1283, 1271, 1294, 1374, 1368, 1369 ]
Genome polyprotein = Genome polyprotein (Hepatitis C virus, UniProt Q2Q167); experiment: HCV core protein dimerization inhibitors, dose response, biochemical, TR-FRET (AID 2159); design: species or system Hepacivirus hominis;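 further: blocks dimerization of HCV core protein measured by TR-FRET between tagged core106 pairs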
[7] = molecular target: 72 kDa type IV collagenase (Homo sapiens, UniProt P08253); experiment: Dose Response validation of uHTS RPN11 inhibitor hits using a MMP-2 Fluorescence assay.; type: functional
[8] = molecular target: Serine/threonine-protein phosphatase PP1-alpha catalytic subunit (Homo sapiens, UniProt P62136); experiment: PP1 phosphatase inhibitors, dose response, biochemical, fluorescence (AID 2403);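 further: phosphatase turnover of OMFP into fluorescent 3-O-methylfluorescein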
Prothrombin = Prothrombin (Bos taurus, UniProt P00735); experiment: thrombin inhibition, dose response, biochemical, fluorescence polarization, uHTS hits (AID 602369); type: functional
[9] = molecular target: 26S proteasome non-ATPase regulatory subunit 14 (Homo sapiens, UniProt O00487); experiment: inhibition of proteasome subunit RPN11 – biochemical, fluorescence polarization, uHTS hits, confirmation (AID 602368); type: functional
[10] = molecular target: T1, Small ubiquitin-related modifier 1 (Homo sapiens, UniProt P63165); experiment: inhibitors of SUMO1 partner interactions, dose response, biochemical, FRET (AID 624383); type: functional; conditions: read-out: IC50_Mean
[11] = molecular target: T1, Small ubiquitin-related modifier 1; experiment: inhibitors of SUMO1 peptide binding, dose response, biochemical, fluorescence polarization, uHTS hits (AID 624382); type: functional; conditions: read-out: IC50_Mean
[12] = molecular target: Serine/threonine-protein phosphatase (Homo sapiens, UniProt Q9BPW0); experiment: Counterscreen for inhibitors of PP1: fluorescence-based biochemical high throughput dose response assay to identify inhibitors of Protein Phosphatase 5 (PP5). [Related pubchem assays: 2034 (Summary (PP5 inhibitors)), 1987 (PP5 inhibitors in singlate), 2235 (PP1 inhibitors in singlate)]
Vero = experiment: Vero E6 cell cytotoxicity, SAR follow-up, cytotoxicity control for West Nile virus antiviral project, synthesized analogs (AID 2244); type: functional; conditions: Chlorocebus sabaeus

T1 sequence (P63165 whole entry): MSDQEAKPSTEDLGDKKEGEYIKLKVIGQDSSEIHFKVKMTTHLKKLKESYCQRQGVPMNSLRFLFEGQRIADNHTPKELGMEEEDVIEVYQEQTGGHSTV
Chain of Serine/threonine-protein phosphatase (Q9BPW0 whole entry): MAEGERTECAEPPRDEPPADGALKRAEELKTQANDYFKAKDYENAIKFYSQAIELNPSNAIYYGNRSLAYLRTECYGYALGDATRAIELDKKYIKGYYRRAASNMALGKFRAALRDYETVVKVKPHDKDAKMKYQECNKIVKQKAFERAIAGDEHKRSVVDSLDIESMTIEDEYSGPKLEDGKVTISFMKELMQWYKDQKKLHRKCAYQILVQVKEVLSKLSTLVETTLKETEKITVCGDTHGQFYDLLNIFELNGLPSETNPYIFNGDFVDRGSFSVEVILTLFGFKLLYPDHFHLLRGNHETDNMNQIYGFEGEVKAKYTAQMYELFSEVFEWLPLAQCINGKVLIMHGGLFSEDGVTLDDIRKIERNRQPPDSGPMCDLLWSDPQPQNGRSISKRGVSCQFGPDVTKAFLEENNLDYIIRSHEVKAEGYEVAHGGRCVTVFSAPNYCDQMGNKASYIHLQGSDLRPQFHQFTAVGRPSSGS
Chain of 26S proteasome non-ATPase regulatory subunit 14 (O00487 whole entry): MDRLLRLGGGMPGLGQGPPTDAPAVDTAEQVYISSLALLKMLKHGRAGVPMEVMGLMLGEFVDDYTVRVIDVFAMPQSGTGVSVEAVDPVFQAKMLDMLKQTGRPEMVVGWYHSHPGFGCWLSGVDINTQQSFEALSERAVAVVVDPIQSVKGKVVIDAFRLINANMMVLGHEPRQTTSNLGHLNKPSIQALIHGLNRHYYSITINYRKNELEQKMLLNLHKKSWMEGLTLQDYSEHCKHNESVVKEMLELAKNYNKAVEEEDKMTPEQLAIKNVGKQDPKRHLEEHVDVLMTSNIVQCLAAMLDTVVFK
Chain of Luciferin 4-monooxygenase (P08659 whole entry): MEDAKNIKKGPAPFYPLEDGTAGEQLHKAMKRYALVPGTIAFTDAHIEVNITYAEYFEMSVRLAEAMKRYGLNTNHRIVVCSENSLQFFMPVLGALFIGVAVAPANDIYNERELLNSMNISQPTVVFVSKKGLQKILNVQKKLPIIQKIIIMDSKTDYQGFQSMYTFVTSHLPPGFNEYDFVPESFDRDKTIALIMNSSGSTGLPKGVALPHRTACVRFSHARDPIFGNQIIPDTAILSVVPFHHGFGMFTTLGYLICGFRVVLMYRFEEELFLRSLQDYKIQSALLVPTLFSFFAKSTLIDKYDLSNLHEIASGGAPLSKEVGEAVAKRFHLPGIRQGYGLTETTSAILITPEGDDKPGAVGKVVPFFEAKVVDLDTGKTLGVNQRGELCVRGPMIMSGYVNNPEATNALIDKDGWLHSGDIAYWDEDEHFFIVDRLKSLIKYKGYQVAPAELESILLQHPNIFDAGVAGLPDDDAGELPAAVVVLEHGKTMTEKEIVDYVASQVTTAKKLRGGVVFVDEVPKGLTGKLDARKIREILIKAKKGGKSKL
Chain of 72 kDa type IV collagenase (P08253 whole entry): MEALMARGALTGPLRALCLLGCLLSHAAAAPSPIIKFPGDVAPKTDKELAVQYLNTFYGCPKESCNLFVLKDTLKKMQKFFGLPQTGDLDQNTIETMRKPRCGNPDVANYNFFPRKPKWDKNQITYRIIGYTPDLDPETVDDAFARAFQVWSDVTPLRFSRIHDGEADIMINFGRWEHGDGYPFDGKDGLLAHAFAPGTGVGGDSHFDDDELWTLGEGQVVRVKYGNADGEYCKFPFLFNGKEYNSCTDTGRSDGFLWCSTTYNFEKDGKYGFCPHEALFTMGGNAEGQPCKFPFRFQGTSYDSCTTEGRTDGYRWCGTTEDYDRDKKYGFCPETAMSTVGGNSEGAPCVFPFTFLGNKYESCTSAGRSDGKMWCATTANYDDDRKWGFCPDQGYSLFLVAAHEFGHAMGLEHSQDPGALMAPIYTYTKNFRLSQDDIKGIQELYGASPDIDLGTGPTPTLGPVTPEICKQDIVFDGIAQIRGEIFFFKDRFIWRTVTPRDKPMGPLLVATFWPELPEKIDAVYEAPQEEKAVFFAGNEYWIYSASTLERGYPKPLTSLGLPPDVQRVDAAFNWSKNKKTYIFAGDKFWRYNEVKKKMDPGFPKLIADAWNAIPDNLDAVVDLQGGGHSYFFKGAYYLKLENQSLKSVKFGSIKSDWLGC
Chain of Scavenger receptor class B member 1 (Q61009 whole entry, the tested form may be a part): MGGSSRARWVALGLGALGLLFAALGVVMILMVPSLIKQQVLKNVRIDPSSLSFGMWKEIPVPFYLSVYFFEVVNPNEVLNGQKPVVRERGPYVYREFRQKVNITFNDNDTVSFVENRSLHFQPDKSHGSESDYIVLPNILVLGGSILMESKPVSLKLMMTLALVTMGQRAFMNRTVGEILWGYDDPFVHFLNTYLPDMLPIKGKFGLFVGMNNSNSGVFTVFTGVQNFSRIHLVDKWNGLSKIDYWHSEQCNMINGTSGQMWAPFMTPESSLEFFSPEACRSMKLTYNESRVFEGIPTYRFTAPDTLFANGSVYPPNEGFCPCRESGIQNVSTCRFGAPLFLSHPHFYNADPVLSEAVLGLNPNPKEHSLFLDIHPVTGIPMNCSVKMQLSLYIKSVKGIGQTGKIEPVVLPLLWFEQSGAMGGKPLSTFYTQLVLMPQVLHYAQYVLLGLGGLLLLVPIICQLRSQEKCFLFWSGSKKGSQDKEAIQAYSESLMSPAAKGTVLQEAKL
Chain of Serine/threonine-protein phosphatase PP1-alpha catalytic subunit (P62136 whole entry): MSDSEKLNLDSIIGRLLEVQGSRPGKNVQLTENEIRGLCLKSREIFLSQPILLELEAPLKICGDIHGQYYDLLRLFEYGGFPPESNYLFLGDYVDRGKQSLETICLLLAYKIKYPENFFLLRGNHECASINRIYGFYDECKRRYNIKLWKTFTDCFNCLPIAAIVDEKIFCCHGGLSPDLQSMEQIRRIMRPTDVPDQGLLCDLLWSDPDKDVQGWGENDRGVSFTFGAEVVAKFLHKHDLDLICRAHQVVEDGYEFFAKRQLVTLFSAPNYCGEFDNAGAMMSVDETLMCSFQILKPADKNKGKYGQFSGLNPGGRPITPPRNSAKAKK
Chain of Genome polyprotein (Q2Q167 whole entry): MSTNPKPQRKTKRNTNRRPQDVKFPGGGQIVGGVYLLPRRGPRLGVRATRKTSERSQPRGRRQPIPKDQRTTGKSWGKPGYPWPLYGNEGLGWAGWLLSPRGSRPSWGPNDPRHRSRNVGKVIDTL

Question: Which AC50 [1] does the source give for CN1CCc2ccc(NC(=O)c3ccc(C(F)(F)F)cc3)cc2C1 here?
Answer: 90.7 µM (active)

Question: With COc1ccc(C(=O)/C=C/c2cccc(OCc3ccccc3)c2)cc1CSCC(=O)O as the compound, how does the IC50 [2] read?
Answer: 18.7 µM (active)

Question: With COc1cc(OC)cc(-c2cc3nc(C)c(CCC(=O)O)c(C)n3n2)c1 as the compound, how does the AC50 (HEK293 [3]) read?
Answer: 0.719 µM (active)

Question: What about the EC50 (HEK293 [4]) of the same compound?
Answer: > 8 µM (inactive)

Question: What about the EC50 (HEK293 [5]) of the same compound?
Answer: 4.19 µM (not active)

Question: And the EC50 [6]?
Answer: > 8 µM (not active)

Question: What does the source list for CCOc1ccc(NC(=O)c2ccc(NC(=O)COC(=O)c3ccc(NC(=O)CC#N)cc3)cc2)cc1?
Answer: IC50 (Genome polyprotein): > 49.8 µM (not active); IC50 [7]: > 100 µM (inactive); IC50 [8]: 6.8 µM (active); IC50 (Prothrombin): 55.4 µM (active); IC50 [9]: 15.9 µM (active); IC50 [10]: 2.11 µM (active); IC50 [11]: > 66.6 µM (inactive); IC50 [12]: > 67 µM (not active)

Question: For O=C(Nc1nc(-c2ccc(Cl)cc2)cs1)c1ccc(I)cc1, which CC50 (Vero) is on record?
Answer: > 40 µM (active)
